# Structures can show the parent of a compound that is named as a salt. Where two headings read alike, the source gives them in different places.
# Legend:
# [1] = test system: T. brucei brucei Lister 427; experiment: Trypanosome replication assay; assay type: cell-based, Trypanosoma brucei brucei; settings: 48 h, 48 h, values ±7%
# [2] = test system: L. major promastigote; experiment: L. major promastigote assay; assay type: cell-based
# [3] = test system: P. falciparum C235; experiment: P. falciparum C235 assay; assay type: cell-based; settings: read-out: P. falciparum C235 (EC50)
# [4] = test system: P. falciparum D6; experiment: P. falciparum D6 assay; assay type: cell-based; settings: strain D6
# [5] = test system: P. falciparum W2; experiment: P. falciparum W2 assay; assay type: cell-based
# [6] = test system: T. cruzi; experiment: T. cruzi growth inhibition; assay type: cell-based, Trypanosoma cruzi; settings: for inhibition at 10 µM: read-out: T. cruzi % inh at 10 μM
# [7] = test system: L. major amastigote; experiment: L. major amastigote assay; assay type: cell-based
# [8] = test system: HepG2 cells; experiment: HepG2 cell toxicity (MTT) assay; assay type: cell-based
# Method: Then 2 μL of DMSO (control) or different concentrations of drugs prepared from 200× DMSO stocks were added to the cultures. […] All experiments were repeated thrice in independent studies where each dose was administered in duplicate (total n=6). HepG2 Cell Toxicity Assay. The 384 well MTT cytotoxicity assay is a modification of the MTT method described by Ferrari et al. optimized for 384-well throughput, with modifications described below.
# HepG2 Cell Toxicity assay. The 384 well MTT cytotoxicity assay is a modification of the MTT method described by Ferrari et al.^1 ENREF—26_ENREF—26_ENREF—26 optimized for 384 well throughput. […] 4.25 μL of diluted test compound was then added to the 38.3 μL of media in each well providing a 10 fold final dilution of compound. […] After a 48 hour incubation period, 8 μL of a 1.5 mg/ml solution of MTT diluted in complete MEM media was added to each well. All plates were subsequently incubated in the dark for 1 hour at room temperature. After incubation, the media and drugs in each well was removed by shaking plate over sink, the plates are then left to dry in hood for 15 minutes. […] Plates are put on a 3-D rotator for 15-30 minutes. Absorbance was determined in all wells using a Tecan iControl 1.6 Infinite plate reader.
# [9] = test system: P. fal; experiment: P. fal assay of Table 13 (strain not given); assay type: cell-based, P. falciparum
# [10] = Trypanosoma brucei, concentration giving 50% inhibition of growth of T brucei brucei Lister 427 cells, read-out: Tbb EC50
# [11] = Plasmodium falciparum, strain C235
# [12] = Plasmodium falciparum, strain W2, read-out: P. falciparum W2 (EC50)
# [13] = Homo sapiens, HepG2, 48 h, MTT, 48 hour incubation, read-out: HepG2 IC50
# [14] = Trypanosoma brucei, read-out: Tbb EC50, concentration giving 50% inhibition of growth of T brucei brucei Lister 427 cells
# [15] = concentration giving 50% inhibition of growth of T brucei brucei Lister 427 cells, read-out: Tbb EC50
"EC50 [1, 10] [nM]",EC50 ([2]; Leishmania major) [nM],"EC50 [3, 11] [nM]",EC50 ([4]; Plasmodium falciparum) [nM],"EC50 [5, 12] [nM]",EC50 ([7]; Leishmania major) [nM],EC50 ([6]; Trypanosoma cruzi) [nM],SMILES,inhibition at 10 µM ([6]; Trypanosoma cruzi) [%],"IC50 [8, 13] [nM]",further results
1340,1700,240,170,360,> 15000,–,"O=S(=O)(c1ccc(-c2ccc3ncnc(Nc4ccc(OCc5ccc(F)cc5)c(Cl)c4)c3c2)cc1)N1CCOCC1 [Compound 20j, N-(3-Chloro-4-((4-fluorobenzyl)oxy)phenyl)-6-(4-(morpholinosulfonyl)phenyl)quinazolin-4-amine Hydrochloride]",-1,> 15000,"EC50 ([1]; concentration giving 50% inhibition of growth of T brucei brucei Lister 427 cells, listed as NEU-566, Hydrochloride, read-out: Tbb EC50): 1300 nM"
1430,15000,350,230,690,15000,–,"COc1cccc(COc2ccc(Nc3ncnc4ccc(-c5ccc(S(=O)(=O)N6CCOCC6)cc5)cc34)cc2Cl)c1 [Compound 20k, N-(3-Chloro-4-((3-methoxybenzyl)oxy)phenyl)-6-(4-(morpholinosulfonyl)phenyl)quinazolin-4-amine Hydrochloride]",5,> 15000,"EC50 ([1]; concentration giving 50% inhibition of growth of T brucei brucei Lister 427 cells, listed as NEU-567, Hydrochloride, read-out: Tbb EC50): 1400 nM"
540,14000,640,570,1110,2500,–,"O=S(=O)(c1ccc(-c2ccc3ncnc(Nc4ccc(OCc5ccc(C(F)(F)F)c(F)c5)c(Cl)c4)c3c2)cc1)N1CCOCC1 [Compound 20l, N-(3-Chloro-4-((3-fluoro-4-(trifluoromethyl)benzyl)oxy)-phenyl)-6-(4-(morpholinosulfonyl)phenyl)quinazolin-4-amine Hydrochloride]",21,> 15000,–
1120,3000,240,140,450,3000,–,"O=S(=O)(c1ccc(-c2ccc3ncnc(Nc4ccc(OCc5cc(F)cc(F)c5F)c(Cl)c4)c3c2)cc1)N1CCOCC1 [Compound 20m, N-(3-Chloro-4-((2,3,5-trifluorobenzyl)oxy)phenyl)-6-(4-(morpholinosulfonyl)phenyl)quinazolin-4-amine Hydrochloride]",14,> 3000,"EC50 ([1]; concentration giving 50% inhibition of growth of T brucei brucei Lister 427 cells, listed as NEU-569, Hydrochloride, read-out: Tbb EC50): 1100 nM"
650,480,850,440,2000,470,–,"O=S(=O)(c1ccc(-c2ccc3ncnc(Nc4ccc(OCc5cccc(F)c5)cc4)c3c2)cc1)N1CCOCC1 [Compound 20n, N-(4-((3-Fluorobenzyl)oxy)phenyl)-6-(4-(morpholinosulfonyl)phenyl)quinazolin-4-amine]",10,> 15000,–
1880,> 15000,600,440,650,> 15000,–,"COc1cc(Nc2ncnc3ccc(-c4ccc(S(=O)(=O)N5CCOCC5)cc4)cc23)ccc1OCc1cccc(F)c1 [Compound 20o, N-(4-((3-Fluorobenzyl)oxy)-3-methoxyphenyl)-6-(4-(morpholinosulfonyl)phenyl)quinazolin-4-amine]",2,> 15000,"EC50 ([1]; concentration giving 50% inhibition of growth of T brucei brucei Lister 427 cells, listed as NEU-570, read-out: Tbb EC50): 1900 nM"
–,–,–,–,–,–,–,Fc1cccc(COc2ccc(Nc3ncnc4ccc(-c5ccc(CN6CCOCC6)cc5)cc34)cc2Cl)c1 [Compound 23d],–,–,"EC50 [1, 15]: 990 nM; EC50 [2]: 2700 nM; EC50 ([3]; strain C235): 85 nM; EC50 [4]: 64 nM; EC50 ([5]; strain W2, read-out: P. falciparum W2 (EC50)): 100 nM; EC50 [6]: 600 nM; EC50 [7]: 5900 nM; IC50 ([8]; MTT, 48 hour incubation, read-out: HepG2 IC50): 12900 nM"
230,6600,720,790,1700,> 15000,1300,"Clc1cc(Nc2ncnc3ccc(-c4cccc(N5CCOCC5)c4)cc23)ccc1OCc1ccccc1 [Compound 23m, N-(4-(Benzyloxy)-3-chlorophenyl)-6-(3-morpholinophenyl)-quinazolin-4-amine]",–,> 20000,–
180,2700,20000,20000,20000,> 15000,–,"c1ccc(COc2ccc(Nc3ncnc4ccc(-c5cccc(N6CCOCC6)c5)cc34)cc2)cc1 [Compound 23n, N-(4-(Benzyloxy)phenyl)-6-(3-morpholinophenyl)-quinazolin-4-amine]",37,> 20000,–
11000,9400,4600,3100,3300,> 15000,6720,"c1ccc(Nc2ncnc3ccc(-c4cccc(N5CCOCC5)c4)cc23)cc1 [Compound 23o, 6-(3-Morpholinophenyl)-N-phenylquinazolin-4-amine]",–,7020,–
240,–,–,–,–,–,3500,"O=S(=O)(c1ccc(-c2ccc3c(Nc4ccc(OCc5ccccc5)c(Cl)c4)ccnc3c2)cc1)N1CCOCC1 [NEU-944, N-(4-(Benzyloxy)-3-chlorophenyl)-7-(4-(morpholinosulfonyl)phenyl)quinolin-4-amine]",–,–,EC50 ([9]; Plasmodium falciparum): 16 nM
1800,> 15000,–,–,–,> 15000,> 50000,"CN1CCN(S(=O)(=O)c2ccc(-c3ccc4ccnc(Nc5ccc(OCc6cccc(F)c6)c(Cl)c5)c4c3)cc2)CC1 [NEU-950, N-(3-Chloro-4-((3-fluorobenzyl)oxy)phenyl)-7-(4-((4-methylpiperazin-1-yl)sulfonyl)phenyl)isoquinolin-1-amine]",–,–,EC50 ([9]; Plasmodium falciparum): 40 nM
100,2700,–,–,–,> 15000,> 50000,"CN1CCN(S(=O)(=O)c2ccc(-c3ccc4c(Nc5ccc(OCc6cccc(F)c6)c(Cl)c5)nccc4c3)cc2)CC1 [NEU-951, N-(3-Chloro-4-((3-fluorobenzyl)oxy)phenyl)-6-(4-((4-methylpiperazin-1-yl)sulfonyl)phenyl)isoquinolin-1-amine]",–,–,EC50 ([9]; Plasmodium falciparum): 110 nM
–,–,–,–,–,–,–,CN1CCN(S(=O)(=O)c2ccc(-c3ccc4ncc(C#N)c(Nc5ccc(OCc6cccc(F)c6)c(Cl)c5)c4c3)cc2)CC1 [NEU-993],–,–,"EC50 [1, 15]: 1100 nM; EC50 [2]: > 15000 nM; EC50 [9]: 82 nM"

SMILES,"EC50 [1, 10] [nM]",EC50 ([2]; Leishmania major) [nM],"EC50 [3, 11] [nM]",EC50 ([4]; Plasmodium falciparum) [nM],"EC50 [5, 12] [nM]",EC50 ([7]; Leishmania major) [nM],EC50 ([6]; Trypanosoma cruzi) [nM],inhibition at 10 µM ([6]; Trypanosoma cruzi) [%],"IC50 [8, 13] [nM]",further results
"Fc1cccc(COc2ccc(Nc3ncnc4ccc(-c5ccc(N6CCOCC6)cc5)cc34)cc2Cl)c1 [Compound 23b, N-(3-Chloro-4-((3-fluorobenzyl)oxy)phenyl)-6-(4-morpholinophenyl)quinazolin-4-amine]",–,4400,290,270,1100,> 15000,–,10,9600,"EC50 [1, 14]: 1910 nM; EC50 ([1]; read-out: Tbb EC50, concentration giving 50% inhibition of growth of T brucei brucei Lister 427 cells, listed as NEU-733): 1900 nM"
"Fc1cccc(COc2ccc(Nc3ncnc4ccc(-c5cccc(N6CCCCC6)c5)cc34)cc2Cl)c1 [Compound 23g, N-(3-Chloro-4-((3-fluorobenzyl)oxy)phenyl)-6-(3-(piperidin-1-yl)phenyl)quinazolin-4-amine]",–,> 15000,–,640,–,> 15000,–,24,–,"EC50 [1, 14]: 760 nM; EC50 ([3]; Plasmodium falciparum): 1100 nM; EC50 ([5]; Plasmodium falciparum, W2, read-out: P. falciparum W2 (EC50)): 1800 nM; IC50 ([8]; Homo sapiens, HepG2, 48 h, read-out: HepG2 IC50, MTT, 48 hour incubation): > 15000 nM"
"O=C(c1cccc(-c2ccc3ncnc(Nc4ccc(OCc5cccc(F)c5)c(Cl)c4)c3c2)c1)N1CCCCC1 [Compound 23k, (3-(4-((3-Chloro-4-((3-fluorobenzyl)oxy)phenyl)amino)-quinazolin-6-yl)phenyl)(piperidin-1-yl)methanone]",–,3500,570,520,960,3500,> 50000,–,> 6000,"EC50 [1, 14]: 140 nM"
